Source: patent publication US10849867B2, “Methods and compositions for treating conditions associated with an abnormal inflammatory response” (First Wave Bio, Inc., priority 2015, dated 2020)

Assays:
TNBS-induced colitis = test: TNBS colitis in mice, niclosamide suspension administered rectally as enema (Example 9); type: in vivo, male Balb/c mice
Source text: Model: Intra-rectal administration of trinitrobenzene sulfonic acid (TNBS) to mice results in colitis. TNBS elicits cell-mediated immune responses and induces transmural inflammation in the gut with morphological and histopathological features similar to those of human inflammatory bowel disease. TNBS induces diffuse colonic inflammation, characterized by increased leukocyte infiltration, edema, and ulceration. It is very well reported that administration of TNBS is associated with predominant activation of Th1-mediated immune response manifested by increased cytokines such as interferon-γ (IFN-γ), tumor necrosis factor-α (TNF-α) and interleukin-17A (IL-17A) as well as dense infiltration of CD4+ T cells. Disease activity in the TNBS model can be determined by loss of body weight, histopathological evaluation of the colon showing evidence of inflammatory damage and evidence of pro-inflammatory cytokines detected in colon tissue. Animals and Treatments: Studies of TNBS colitis were performed in 8- to 12-week-old male Balb/c mice (Jackson Laboratories, stock number 000651). […] Weight changes were recorded daily and tissues were collected for histologic study and RNA analysis at the end of the study. […] Gene expression was calculated using the ΔΔCt algorithm.

human LPMCs T cells = test: ΔΨm in human LPMC CD45+CD3+ T cells, JC-1 flow cytometry (Example 12); type: cell-based; settings: 5 μM, 60 min, JC-1, relative to negative control
Source text: The Model-Lamina propria mononuclear cells (LPMC) in the human intestine are comprised in part by T cells which mediate physiological and pathological processes including inflammatory bowel disease. LPMCs can be isolated from human tissue biopsies. After isolation […] cells remain viable ex vivo under appropriate culture conditions for periods of time that allow ex vivo experiments. These cells can be used to investigate mechanisms that regulate their mitochondrial function and survival They contain respiring mitochondria and as such their response to test agents may be assessed. Uncoupling is identified and quantified by a detecting a drop in the electrochemical gradient across the mitochondrial inner membrane (ΔΨm). […] The isolated cells were counted and checked for viability using 0.1% trypan blue (viability ranged from 86% to 94%). […] A flow cytometer FACSVerse flow cytometer and FACSSuite software [BD Biosciences] was used for quantification of JC-1 fluorescence in CD45+CD3+ cells. […] Consequently, mitochondrial depolarization is indicated by a decrease in the red/green fluorescence intensity ratio. […] LPMC CD45+CD3+ T cells were first defined by their fluorescence emission from labeling with eFluor® 450-anti-CD3 antibody and PerCP-Cyanine5.5-[…] antibody. The fluorescence intensity of JC-1 detected at 525 nm and 590 nm in the CD45+CD3+ T cell population was then measured. […]

For `O=C(Nc1ccc([N+](=O)[O-])cc1Cl)c1cc(Cl)ccc1O` [Niclosamide, 5-chloro-N-(2-chloro-4-nitrophenyl)-2-hydroxybenzamide], the body weight (TNBS-induced colitis; rectal 30 mg/kg on days 1 and 2, TNBS-induced colitis) was “recovery of body weight”, the “colitis score (H&E analysis of colon biopsies)” value (TNBS-induced colitis; rectal 30 mg/kg on days 1 and 2, compared to vehicle control or TNBS only) was “significantly lower” and the “change in ΔΨm in human LPMCs T cells” value (human LPMCs T cells) was “decrease”.
